From the NIST ThermoML archive (doi:10.1021/je800786k)
± gives the expanded uncertainty stated by the source.

Conditions: Liquid, Vibrating tube method

CCC(C)N (configuration not stated) [2-butanamine]
Conditions	mass density [kg/m3]
293.15 K, 100 kPa	725.3 ± 1.1
293.15 K, 10000 kPa	733.6 ± 1.1
293.15 K, 20000 kPa	741.2 ± 1.1
293.15 K, 30000 kPa	748.1 ± 1.1
293.15 K, 40000 kPa	754.5 ± 1.1
293.15 K, 50000 kPa	760.4 ± 1.2
293.15 K, 60000 kPa	766.1 ± 1.2
293.15 K, 70000 kPa	771.3 ± 1.2
293.15 K, 80000 kPa	776.3 ± 1.3
293.15 K, 90000 kPa	781.1 ± 1.3
293.15 K, 100000 kPa	785.5 ± 1.3
293.15 K, 110000 kPa	789.7 ± 1.4
293.15 K, 120000 kPa	793.9 ± 1.4
293.15 K, 130000 kPa	797.8 ± 1.4
293.15 K, 140000 kPa	801.5 ± 1.5
303.15 K, 100 kPa	715.1 ± 1.1
303.15 K, 10000 kPa	724.3 ± 1.1
303.15 K, 20000 kPa	732.4 ± 1.1
303.15 K, 30000 kPa	739.7 ± 1.1
303.15 K, 40000 kPa	746.3 ± 1.1
303.15 K, 50000 kPa	752.5 ± 1.2
303.15 K, 60000 kPa	758.3 ± 1.2
303.15 K, 70000 kPa	763.7 ± 1.2
303.15 K, 80000 kPa	768.9 ± 1.3
303.15 K, 90000 kPa	773.8 ± 1.3
303.15 K, 100000 kPa	778.4 ± 1.4
303.15 K, 110000 kPa	782.9 ± 1.4
303.15 K, 120000 kPa	787.2 ± 1.4
303.15 K, 130000 kPa	791.2 ± 1.5
303.15 K, 140000 kPa	795.2 ± 1.5
313.15 K, 100 kPa	705 ± 1.1
313.15 K, 10000 kPa	714.8 ± 1.1
313.15 K, 20000 kPa	723.4 ± 1.1
313.15 K, 30000 kPa	731.1 ± 1.1
313.15 K, 40000 kPa	738.2 ± 1.1
313.15 K, 50000 kPa	744.7 ± 1.2
313.15 K, 60000 kPa	750.8 ± 1.2
313.15 K, 70000 kPa	756.5 ± 1.3
313.15 K, 80000 kPa	761.9 ± 1.3
313.15 K, 90000 kPa	767 ± 1.3
313.15 K, 100000 kPa	771.8 ± 1.4
313.15 K, 110000 kPa	776.4 ± 1.4
313.15 K, 120000 kPa	780.8 ± 1.5
313.15 K, 130000 kPa	785.1 ± 1.5
313.15 K, 140000 kPa	789.1 ± 1.5
323.15 K, 100 kPa	694.7 ± 1.1
323.15 K, 10000 kPa	705.4 ± 1.1
323.15 K, 20000 kPa	714.5 ± 1.1
323.15 K, 30000 kPa	722.8 ± 1.1
323.15 K, 40000 kPa	730.4 ± 1.2
323.15 K, 50000 kPa	737.2 ± 1.2
323.15 K, 60000 kPa	743.6 ± 1.2
323.15 K, 70000 kPa	749.5 ± 1.3
323.15 K, 80000 kPa	755.2 ± 1.3
323.15 K, 90000 kPa	760.4 ± 1.3
323.15 K, 100000 kPa	765.4 ± 1.4
323.15 K, 110000 kPa	770.2 ± 1.4
323.15 K, 120000 kPa	774.7 ± 1.5
323.15 K, 130000 kPa	779 ± 1.5
323.15 K, 140000 kPa	783.2 ± 1.6
333.15 K, 10000 kPa	695.4 ± 1.1
333.15 K, 20000 kPa	705.2 ± 1.1
333.15 K, 30000 kPa	714 ± 1.1
333.15 K, 40000 kPa	722 ± 1.2
333.15 K, 50000 kPa	729.2 ± 1.2
333.15 K, 60000 kPa	735.8 ± 1.2
333.15 K, 70000 kPa	742.1 ± 1.3
333.15 K, 80000 kPa	748 ± 1.3
333.15 K, 90000 kPa	753.4 ± 1.4
333.15 K, 100000 kPa	758.6 ± 1.4
333.15 K, 110000 kPa	763.5 ± 1.5
333.15 K, 120000 kPa	768.1 ± 1.5
333.15 K, 130000 kPa	772.5 ± 1.5
333.15 K, 140000 kPa	776.9 ± 1.6
343.15 K, 10000 kPa	685.9 ± 1.1
343.15 K, 20000 kPa	696.6 ± 1.1
343.15 K, 30000 kPa	706 ± 1.2
343.15 K, 40000 kPa	714.3 ± 1.2
343.15 K, 50000 kPa	721.9 ± 1.2
343.15 K, 60000 kPa	728.8 ± 1.3
343.15 K, 70000 kPa	735.3 ± 1.3
343.15 K, 80000 kPa	741.3 ± 1.3
343.15 K, 90000 kPa	747.1 ± 1.4
343.15 K, 100000 kPa	752.4 ± 1.4
343.15 K, 110000 kPa	757.4 ± 1.5
343.15 K, 120000 kPa	762.3 ± 1.5
343.15 K, 130000 kPa	767 ± 1.6
343.15 K, 140000 kPa	771.3 ± 1.6
353.15 K, 10000 kPa	675.8 ± 1.1
353.15 K, 20000 kPa	687.1 ± 1.1
353.15 K, 30000 kPa	697.2 ± 1.2
353.15 K, 40000 kPa	705.8 ± 1.2
353.15 K, 50000 kPa	714 ± 1.2
353.15 K, 60000 kPa	721.2 ± 1.3
353.15 K, 70000 kPa	728 ± 1.3
353.15 K, 80000 kPa	734.2 ± 1.4
353.15 K, 90000 kPa	740.1 ± 1.4
353.15 K, 100000 kPa	745.7 ± 1.4
353.15 K, 110000 kPa	751 ± 1.5
353.15 K, 120000 kPa	756 ± 1.5
353.15 K, 130000 kPa	760.7 ± 1.6
353.15 K, 140000 kPa	765.3 ± 1.6
363.15 K, 10000 kPa	665.7 ± 1.2
363.15 K, 20000 kPa	678 ± 1.2
363.15 K, 30000 kPa	688.5 ± 1.2
363.15 K, 40000 kPa	697.8 ± 1.2
363.15 K, 50000 kPa	706.2 ± 1.2
363.15 K, 60000 kPa	713.9 ± 1.3
363.15 K, 70000 kPa	721 ± 1.3
363.15 K, 80000 kPa	727.5 ± 1.4
363.15 K, 90000 kPa	733.6 ± 1.4
363.15 K, 100000 kPa	739.4 ± 1.5
363.15 K, 110000 kPa	744.8 ± 1.5
363.15 K, 120000 kPa	749.9 ± 1.6
363.15 K, 130000 kPa	754.8 ± 1.6
363.15 K, 140000 kPa	759.5 ± 1.7
373.15 K, 10000 kPa	655.5 ± 1.2
373.15 K, 20000 kPa	668.9 ± 1.2
373.15 K, 30000 kPa	680.1 ± 1.2
373.15 K, 40000 kPa	690 ± 1.2
373.15 K, 50000 kPa	698.2 ± 1.3
373.15 K, 60000 kPa	707 ± 1.3
373.15 K, 70000 kPa	714 ± 1.3
373.15 K, 80000 kPa	720.9 ± 1.4
373.15 K, 90000 kPa	727.2 ± 1.4
373.15 K, 100000 kPa	733.2 ± 1.5
373.15 K, 110000 kPa	738.7 ± 1.5
373.15 K, 120000 kPa	744 ± 1.6
373.15 K, 130000 kPa	749.1 ± 1.6
373.15 K, 140000 kPa	753.9 ± 1.7
383.15 K, 10000 kPa	645.5 ± 1.2
383.15 K, 20000 kPa	659.9 ± 1.2
383.15 K, 30000 kPa	671.9 ± 1.2
383.15 K, 40000 kPa	682.3 ± 1.2
383.15 K, 50000 kPa	691.4 ± 1.3
383.15 K, 60000 kPa	699.6 ± 1.3
383.15 K, 70000 kPa	707.3 ± 1.4
383.15 K, 80000 kPa	714.4 ± 1.4
383.15 K, 90000 kPa	720.8 ± 1.5
383.15 K, 100000 kPa	726.9 ± 1.5
383.15 K, 110000 kPa	732.7 ± 1.6
383.15 K, 120000 kPa	738.2 ± 1.6
383.15 K, 130000 kPa	743.3 ± 1.7
383.15 K, 140000 kPa	748.2 ± 1.7
393.15 K, 10000 kPa	634.9 ± 1.2
393.15 K, 20000 kPa	650.5 ± 1.2
393.15 K, 30000 kPa	663.1 ± 1.2
393.15 K, 40000 kPa	674.3 ± 1.2
393.15 K, 50000 kPa	684.3 ± 1.3
393.15 K, 60000 kPa	693 ± 1.3
393.15 K, 70000 kPa	700.9 ± 1.4
393.15 K, 80000 kPa	708.2 ± 1.4
393.15 K, 90000 kPa	714.9 ± 1.5
393.15 K, 100000 kPa	721.2 ± 1.5
393.15 K, 110000 kPa	727.2 ± 1.6
393.15 K, 120000 kPa	732.8 ± 1.6
393.15 K, 130000 kPa	738.1 ± 1.7
393.15 K, 140000 kPa	742.9 ± 1.7
403.15 K, 10000 kPa	623.9 ± 1.2
403.15 K, 20000 kPa	640.6 ± 1.2
403.15 K, 30000 kPa	654.5 ± 1.2
403.15 K, 40000 kPa	666.1 ± 1.3
403.15 K, 50000 kPa	676.3 ± 1.3
403.15 K, 60000 kPa	685.3 ± 1.3
403.15 K, 70000 kPa	693.6 ± 1.4
403.15 K, 80000 kPa	701.1 ± 1.4
403.15 K, 90000 kPa	708.2 ± 1.5
403.15 K, 100000 kPa	714.9 ± 1.5
403.15 K, 110000 kPa	721.1 ± 1.6
403.15 K, 120000 kPa	726.9 ± 1.6
403.15 K, 130000 kPa	732.3 ± 1.7
403.15 K, 140000 kPa	737.4 ± 1.8
